Data as given in patent publication US11672786B2, “Methods of treating diseases associated with repeat instability” (The Hospital for Sick Children, priority 2016, dated 2023).

Tests used:
[1] = system: fully-duplexed (CAG)50●(CTG)50; test: band-shift NA-DNA binding, fully-duplexed repeat; parameters: species or system human; conditions: NA 0.15-50 μM, 4% polyacrylamide gel
Description: FIG. 2 are the results of experiments showing that NA binds to long CAG slip-outs. […] The (CAG)n DNA sequence (left) can fold into an hairpin structure involving mismatched A-A pair flanking C-G base pairs (middle). NA molecules can intercalate into the DNA helix, with the 2-amino-1,8-naphthyridine moiety (in red) hydrogen bonding to guanine and 8-azaquinolone moiety (in blue) hydrogen bonding to adenine. […] Long slip-outs extruded as a single slip-out from a fully base-paired backbone of (CTG)n●(CAG)n, as described (Pearson et al., 2002, Nuc. Acids Res., 30:4534-47). DNAs were mixed with increasing concentrations of NA (0.15 μM, 0.75 μM, 7.5 μM and 50 μM) and resolved on 4% polyacrylamide gels. All lanes are from the same gel, and they were separated for clarity. NA-DNA complexes are shown by brackets, free DNA is indicated by arrowheads. […] The relative migration was measured for the linear and the three slip-outs substrates as the ratio of the migration distance of each NA-DNA complex to the migration distance of the free DNA. The migration distance was measured from the well to a consistent center point of each band. […]

[2] = system: d(CAG)10; conditions: ESI-TOF MS; cited from earlier work

Substance: naphthyridine-azaquinolone
- NA binding (band-shift) [1]: did not bind
- number of NA molecules bound to the repeat [2]: at least 6 NA molecules
